Measured values reported in patent US20230111310A1, “CARBOXYLIC ACID DERIVATIVE-SUBSTITUTED IMINO ARYL COMPOUND, PREPARATION METHOD THEREFOR, HERBICIDAL COMPOSITION AND USE THEREOF” (Qingdao Kingagroot Chemical Compound Co., Ltd., priority 2020, published 2023).

Key:
Test in all cases: Weeding effect in post-emergence stage
Assay type in all cases: in vivo
Conditions in all cases: level of fresh weight growth control rate
Alopecurus japonicus = system: Alopecurus japonicus
Procedure, shortened: (§1)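 Weeds were treated post-emergence at 2-3 leaves with compound doses from 7.5 up to 500 g/ha, formulated in acetone–Tween 80 with methyl oleate synergist. Efficacy was assessed as growth control after 3 weeks.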

Digitaria sanguinalis = system: Digitaria sanguinalis
Procedure, shortened: as §1

Abutilon theophrasti = system: Abutilon theophrasti
Procedure, shortened: as §1

Setaria viridis = system: Setaria viridis
Procedure, shortened: as §1

Eleusine indica = system: Eleusine indica
Procedure, shortened: as §1

Echinochloa crusgalli = system: Echinochloa crusgalli
Procedure, shortened: as §1

CC(C)=NOCCOC(=O)C(C)O/N=C/c1cc(-n2c(=O)cc(C(F)(F)F)n(C)c2=O)c(F)cc1Cl (stereo not drawn) [Compound 259]
Weeding effect in post-emergence stage, Alopecurus japonicus (Alopecurus japonicus; Dose 30 g/ha): 5 (Level 5: growth control rate is above 85%) | Weeding effect in post-emergence stage, Digitaria sanguinalis (Digitaria sanguinalis; Dose 30 g/ha): 5 (Level 5: growth control rate is above 85%) | Weeding effect in post-emergence stage, Abutilon theophrasti (Abutilon theophrasti; Dose 30 g/ha): 5 (Level 5: growth control rate is above 85%) | Weeding effect in post-emergence stage, Setaria viridis (Setaria viridis; Dose 30 g/ha): 5 (Level 5: growth control rate is above 85%) | Weeding effect in post-emergence stage, Eleusine indica (Eleusine indica; Dose 30 g/ha): 5 (Level 5: growth control rate is above 85%) | Weeding effect in post-emergence stage, Echinochloa crusgalli (Echinochloa crusgalli; Dose 30 g/ha): 5 (Level 5: growth control rate is above 85%)

CC(O/N=C/c1cc(-n2c(=O)cc(C(F)(F)F)n(C)c2=O)c(F)cc1Cl)C(=O)Oc1ccccc1 (stereo not drawn) [Compound 262]
Weeding effect in post-emergence stage, Alopecurus japonicus (Alopecurus japonicus; Dose 15 g/ha): 5 (Level 5: growth control rate is above 85%) | Weeding effect in post-emergence stage, Digitaria sanguinalis (Digitaria sanguinalis; Dose 15 g/ha): 5 (Level 5: growth control rate is above 85%) | Weeding effect in post-emergence stage, Abutilon theophrasti (Abutilon theophrasti; Dose 15 g/ha): 5 (Level 5: growth control rate is above 85%) | Weeding effect in post-emergence stage, Setaria viridis (Setaria viridis; Dose 15 g/ha): 5 (Level 5: growth control rate is above 85%) | Weeding effect in post-emergence stage, Eleusine indica (Eleusine indica; Dose 15 g/ha): 5 (Level 5: growth control rate is above 85%) | Weeding effect in post-emergence stage, Echinochloa crusgalli (Echinochloa crusgalli; Dose 15 g/ha): 5 (Level 5: growth control rate is above 85%)

CC(O/N=C/c1cc(-n2c(=O)cc(C(F)(F)F)n(C)c2=O)c(F)cc1Cl)C(=O)ON1C(=O)CCC1=O (stereo not drawn) [Compound 263]
Weeding effect in post-emergence stage, Alopecurus japonicus (Alopecurus japonicus; Dose 60 g/ha): 5 (Level 5: growth control rate is above 85%) | Weeding effect in post-emergence stage, Digitaria sanguinalis (Digitaria sanguinalis; Dose 60 g/ha): 5 (Level 5: growth control rate is above 85%) | Weeding effect in post-emergence stage, Abutilon theophrasti (Abutilon theophrasti; Dose 60 g/ha): 5 (Level 5: growth control rate is above 85%) | Weeding effect in post-emergence stage, Setaria viridis (Setaria viridis; Dose 60 g/ha): 5 (Level 5: growth control rate is above 85%) | Weeding effect in post-emergence stage, Eleusine indica (Eleusine indica; Dose 60 g/ha): 5 (Level 5: growth control rate is above 85%) | Weeding effect in post-emergence stage, Echinochloa crusgalli (Echinochloa crusgalli; Dose 60 g/ha): 5 (Level 5: growth control rate is above 85%)

CC(O/N=C/c1cc(-n2c(=O)cc(C(F)(F)F)n(C)c2=O)c(F)cc1Cl)C(=O)OCC1CCCO1 (stereo not drawn) [Compound 264]
Weeding effect in post-emergence stage, Alopecurus japonicus (Alopecurus japonicus; Dose 15 g/ha): 5 (Level 5: growth control rate is above 85%) | Weeding effect in post-emergence stage, Digitaria sanguinalis (Digitaria sanguinalis; Dose 15 g/ha): 5 (Level 5: growth control rate is above 85%) | Weeding effect in post-emergence stage, Abutilon theophrasti (Abutilon theophrasti; Dose 15 g/ha): 5 (Level 5: growth control rate is above 85%) | Weeding effect in post-emergence stage, Setaria viridis (Setaria viridis; Dose 15 g/ha): 5 (Level 5: growth control rate is above 85%) | Weeding effect in post-emergence stage, Eleusine indica (Eleusine indica; Dose 15 g/ha): 5 (Level 5: growth control rate is above 85%) | Weeding effect in post-emergence stage, Echinochloa crusgalli (Echinochloa crusgalli; Dose 15 g/ha): 5 (Level 5: growth control rate is above 85%)

CC(O/N=C/c1cc(-n2c(=O)cc(C(F)(F)F)n(C)c2=O)c(F)cc1Cl)C(=O)OCC1OCCO1 (stereo not drawn) [Compound 266]
Weeding effect in post-emergence stage, Alopecurus japonicus (Alopecurus japonicus; Dose 30 g/ha): 5 (Level 5: growth control rate is above 85%) | Weeding effect in post-emergence stage, Digitaria sanguinalis (Digitaria sanguinalis; Dose 30 g/ha): 5 (Level 5: growth control rate is above 85%) | Weeding effect in post-emergence stage, Abutilon theophrasti (Abutilon theophrasti; Dose 30 g/ha): 5 (Level 5: growth control rate is above 85%) | Weeding effect in post-emergence stage, Setaria viridis (Setaria viridis; Dose 30 g/ha): 5 (Level 5: growth control rate is above 85%) | Weeding effect in post-emergence stage, Eleusine indica (Eleusine indica; Dose 30 g/ha): 5 (Level 5: growth control rate is above 85%) | Weeding effect in post-emergence stage, Echinochloa crusgalli (Echinochloa crusgalli; Dose 30 g/ha): 5 (Level 5: growth control rate is above 85%)

CC(O/N=C/c1cc(-n2c(=O)cc(C(F)(F)F)n(C)c2=O)c(F)cc1Cl)C(=O)OCc1cccs1 (stereo not drawn) [Compound 268]
Weeding effect in post-emergence stage, Alopecurus japonicus (Alopecurus japonicus; Dose 30 g/ha): 5 (Level 5: growth control rate is above 85%) | Weeding effect in post-emergence stage, Digitaria sanguinalis (Digitaria sanguinalis; Dose 30 g/ha): 5 (Level 5: growth control rate is above 85%) | Weeding effect in post-emergence stage, Abutilon theophrasti (Abutilon theophrasti; Dose 30 g/ha): 5 (Level 5: growth control rate is above 85%) | Weeding effect in post-emergence stage, Setaria viridis (Setaria viridis; Dose 30 g/ha): 5 (Level 5: growth control rate is above 85%) | Weeding effect in post-emergence stage, Eleusine indica (Eleusine indica; Dose 30 g/ha): 5 (Level 5: growth control rate is above 85%) | Weeding effect in post-emergence stage, Echinochloa crusgalli (Echinochloa crusgalli; Dose 30 g/ha): 5 (Level 5: growth control rate is above 85%)

CC(O/N=C/c1cc(-n2c(=O)cc(C(F)(F)F)n(C)c2=O)c(F)cc1Cl)C(=O)OCc1ccccc1 (stereo not drawn) [Compound 283]
Weeding effect in post-emergence stage, Alopecurus japonicus (Alopecurus japonicus; Dose 15 g/ha): 5 (Level 5: growth control rate is above 85%) | Weeding effect in post-emergence stage, Digitaria sanguinalis (Digitaria sanguinalis; Dose 15 g/ha): 5 (Level 5: growth control rate is above 85%) | Weeding effect in post-emergence stage, Abutilon theophrasti (Abutilon theophrasti; Dose 15 g/ha): 5 (Level 5: growth control rate is above 85%) | Weeding effect in post-emergence stage, Setaria viridis (Setaria viridis; Dose 15 g/ha): 5 (Level 5: growth control rate is above 85%) | Weeding effect in post-emergence stage, Eleusine indica (Eleusine indica; Dose 15 g/ha): 5 (Level 5: growth control rate is above 85%) | Weeding effect in post-emergence stage, Echinochloa crusgalli (Echinochloa crusgalli; Dose 15 g/ha): 5 (Level 5: growth control rate is above 85%)

CC(O/N=C/c1cc(-n2c(=O)cc(C(F)(F)F)n(C)c2=O)c(F)cc1Cl)C(=O)OCc1ccccc1F (stereo not drawn) [Compound 284]
Weeding effect in post-emergence stage, Alopecurus japonicus (Alopecurus japonicus; Dose 15 g/ha): 5 (Level 5: growth control rate is above 85%) | Weeding effect in post-emergence stage, Digitaria sanguinalis (Digitaria sanguinalis; Dose 15 g/ha): 5 (Level 5: growth control rate is above 85%) | Weeding effect in post-emergence stage, Abutilon theophrasti (Abutilon theophrasti; Dose 15 g/ha): 5 (Level 5: growth control rate is above 85%) | Weeding effect in post-emergence stage, Setaria viridis (Setaria viridis; Dose 15 g/ha): 5 (Level 5: growth control rate is above 85%) | Weeding effect in post-emergence stage, Eleusine indica (Eleusine indica; Dose 15 g/ha): 5 (Level 5: growth control rate is above 85%) | Weeding effect in post-emergence stage, Echinochloa crusgalli (Echinochloa crusgalli; Dose 15 g/ha): 5 (Level 5: growth control rate is above 85%)
